Measured values reported in patent US20090221666A1, “STILBENE DERIVATIVES AND METHODS OF INHIBITING CANCER CELL GROWTH AND MICROBIAL GROWTH” (priority 2005, published 2009).

How the values were obtained:
[1] = system: MCF-7 breast cancer cells; assay: Mitotic index of MCF-7 cells; type: cell-based, human; details: 16 h at 10 times the IC50 concentration; without drug 2.9%
Method: (§1) Cytotoxicity assays were performed by the sulforhodamine B method, in which inhibition of formation of cellular protein is measured (Ref. 42). The mitotic index of MCF-7 breast cancer cells was determined as described previously (Ref. 27), except that cells were incubated in the presence of drug for 16 h prior to addition of the DNA stain.

[2] = system: Bovine brain tubulin (colchicine site); assay: Inhibition of [3H]colchicine binding to tubulin; details: 50 μM inhibitor; 1.0 μM tubulin, 5.0 μM [3H]colchicine
Method: (§2) Bovine brain tubulin was prepared and the tubulin assembly and colchicine binding assays were performed as described previously. In the assembly assay, reaction mixtures contained 1.0 mg/mL (10 μM) tubulin and varying concentrations of potential inhibitors. In the colchicine binding assay reaction mixtures contained 0.1 mg/mL (1.0 μM) tubulin, 5.0 μM [^3H]colchicine, and potential inhibitor as indicated. The vinblastine binding assay was performed as described previously for GTP binding by centrifugal gel filtration, except that a Beckman Allegra 6KR centrifuge equipped with a GH-3.8A swinging bucket rotor was used and the syringe-columns were centrifuged at 2,000 rpm (Ref. 38-41). Reaction mixtures contained 0.5 mg/mL (5.0 μM) tubulin, 5 μM [^3H]vinblastine, potential inhibitor as indicated, 0.5 mM MgCl2, 0.1 M 4-morpholineethanesulfonate (1.0 M stock solution adjusted to pH 6.9 with NaOH, and 4% (v/v) dimethyl sulfoxide. Incubation (30 min) and centrifugal gel filtration were performed at room temperature (20-22° C.).

[3] = system: human cancer cell lines and murine P388; assay: cells; type: cell-based; details: mini-panel of human cancer cell lines
Method: as §1

[4] = system: Bovine brain tubulin (vinca domain); assay: Inhibition of [3H]vinblastine binding to tubulin; details: 5.0 μM tubulin, 5 μM [3H]vinblastine
Method: as §2

[5] = system: P388 lymphocytic leukemia cell line; type: cell-based; details: murine P388 lymphocytic leukemia cell line
Method: as §1

MCF-7 = assay: cells; type: cell-based, human; details: MCF-7
Method: as §1

NCI-H460 = assay: cells; type: cell-based, human
Method: as §1

KM20L2 = assay: cells; type: cell-based, human; details: KM20L2
Method: as §1

SF-295 = assay: cells; type: cell-based, human
Method: as §1

DU145 = assay: cells; type: cell-based, human; details: DU145
Method: as §1

BXPC-3 = assay: cells; type: cell-based, human
Method: as §1

Bovine brain tubulin = assay: Inhibition of tubulin assembly; type: biochemical; details: 1.0 mg/mL (10 μM) tubulin; read-out: Inhibition of tubulin assembly IC50 (μM) ± SD
Method: as §2

[6] = system: MCF-7 breast cancer cells; assay: Inhibition of growth of MCF-7 breast cancer cells (sulforhodamine B); type: cell-based, human
Method: as §1

Question: How did the “Mitotic index of MCF-7 cells % Mitoses” value [1] turn out when CC[C@H](C)[C@@H]([C@@H](CC(=O)N1CCC[C@H]1[C@H](OC)[C@@H](C)C(=O)Nc1cc(/C=C\c2cc(OC)c3c(c2)OCO3)ccc1OC)OC)N(C)C(=O)[C@@H](NC(=O)[C@H](C(C)C)N(C)C)C(C)C [Compound 16, 3,4-Methylenedioxy-5,4′-dimethoxy-3′-(Dov-Val-Dil-Dap)-amido-Z-stilbene] was run?
Answer: 57%

Question: What about the “Inhibition of colchicine binding % Inhibition ± SD” value [2] of the same molecule?
Answer: 30 ± 2%

Question: What about the “inhibition of mini-panel of human cancer cell lines (in words)” value [3] of the same molecule?
Answer: strongly inhibiting

Question: And the “Inhibition of vinblastine binding % Inhibition ± SD” value ([4]; 10 μM inhibitor)?
Answer: 48 ± 3%

Question: And the “Inhibition of vinblastine binding % Inhibition ± SD” value ([4]; 80 μM inhibitor)?
Answer: 87 ± 2%

Question: And the “Leukemia P388 ED50” value [5]?
Answer: <0.01 µg/mL

Question: What about the “Breast MCF-7 GI50” value (MCF-7) of the same molecule?
Answer: 0.0031 µg/mL

Question: What about the “Lung-NSC NCI-H460 GI50” value (NCI-H460) of the same molecule?
Answer: 0.033 µg/mL

Question: And the “Colon KM20L2 GI50” value (KM20L2)?
Answer: 0.020 µg/mL

Question: And the “CNS SF-295 GI50” value (SF-295)?
Answer: 0.025 µg/mL

Question: What about the “Prostate DU145 GI50” value (DU145) of the same molecule?
Answer: 0.032 µg/mL

Question: What about the “Pancreas BXPC-3 GI50” value (BXPC-3) of the same molecule?
Answer: 0.048 µg/mL

Question: What about the IC50 (Bovine brain tubulin) of the same molecule?
Answer: 1.3 ± 0.04 µM

Question: And the IC50 ([6]; MCF-7, read-out: Inhibition of growth of MCF-7 breast cancer cells IC50 (nM) ± SD)?
Answer: 17 nM

Question: And the “times as active as hydrochloride 1b, MCF-7 cells” value ([6]; relative to 1b)?
Answer: ~4 times

Question: What about the “activity as fraction of D-10 (4a), MCF-7 cells” value ([6]; relative to 4a) of the same molecule?
Answer: 1/200
